Test results: US11020395B2, “Cycloalkyl substituted triazole compounds as agonists of the APJ receptor” (AMGEN INC., priority 2016, dated 2021)

What follows are compounds tested against human APJ receptor (Homo sapiens (Human), UniProt P35414) (assay: [35S]GTPγS binding assay on membranes from CHO cells stably expressing human APJ receptor). Conditions: [35S]GTPγS SPA, read-out: Activity hAPJ SPA EC50 IP.
Type: biochemical
Procedure, shortened: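 Agonist-stimulated [35S]GTPγS binding measured on membranes of a stable human APJ CHO line, 90 min at room temperature, with GDP, MgCl2 and NaCl levels optimized beforehand. Means of independent runs fitted by non-linear regression to give EC50.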

Chain of human APJ receptor (P35414 whole entry): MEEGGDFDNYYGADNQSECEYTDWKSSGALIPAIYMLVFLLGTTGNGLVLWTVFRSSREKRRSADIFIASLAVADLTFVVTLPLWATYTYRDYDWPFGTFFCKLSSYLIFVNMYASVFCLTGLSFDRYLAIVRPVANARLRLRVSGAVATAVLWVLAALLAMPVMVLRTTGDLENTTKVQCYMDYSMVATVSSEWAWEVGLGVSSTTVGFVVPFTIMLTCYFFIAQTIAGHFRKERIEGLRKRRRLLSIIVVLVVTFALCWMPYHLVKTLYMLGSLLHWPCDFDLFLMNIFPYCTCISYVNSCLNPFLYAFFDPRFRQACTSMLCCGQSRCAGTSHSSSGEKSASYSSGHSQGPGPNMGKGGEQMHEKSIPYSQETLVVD

Question: `COc1cccc(OC)c1-n1c(NS(=O)(=O)[C@@H](C)[C@H](OC)c2ncc(Cl)cn2)nnc1C1CC2(CCC2)C1` [Example 236.0, (1R,2S)-1-(5-chloro-2-pyrimidinyl)-N-(4-(2,6-dimethoxyphenyl)-5-(spiro[3.3]heptan-2-yl)-4H-1,2,4-triazol-3-yl)-1-methoxy-2-propanesulfonamide] was tested. Which EC50 did it give?
Answer: 0.99 nM

Question: How did the EC50 turn out when `CO[C@H](c1ncc(Cl)cn1)[C@H](C)S(=O)(=O)Nc1nnc([C@H]2C[C@H](CO)C2)n1C(C)C` (single isomer, unassigned) [Example 137.0, (1R,2S)-1-(5-chloro-2-pyrimidinyl)-N-(5-(trans-3-(hydroxymethyl)cyclobutyl)-4-(2-propanyl)-4H-1,2,4-triazol-3-yl)-1-methoxy-2-propanesulfonamide or (1R,2S)-1-(5-chloro-2-pyrimidinyl)-N-(5-(cis-3-(hydroxymethyl)cyclobutyl)-4-(2-propanyl)-4H-1,2,4-triazol-3-yl)-1-methoxy-2-propanesulfonamide] was run?
Answer: 340 nM

Question: With `COc1cccc(OC)c1-n1c(NS(=O)(=O)[C@@H](C)[C@H](OC)c2ncc(Cl)cn2)nnc1[C@H]1C[C@H](Cl)C1` (single isomer, unassigned) [Example 154.0, (1R,2S)-1-(5-chloropyrimidin-2-yl)-N-(4-(2,6-dimethoxyphenyl)-5-((1r,3S)-3-chlorocyclobutyl)-4H-1,2,4-triazol-3-yl)-1-methoxypropane-2-sulfonamide or (1R,2S)-1-(5-chloropyrimidin-2-yl)-N-(4-(2,6-dimethoxyphenyl)-5-((1s,3R)-3-chlorocyclobutyl)-4H-1,2,4-triazol-3-yl)-1-methoxypropane-2-sulfonamide] as the compound, how does the EC50 read?
Answer: 0.18 nM

Question: `C=C1CC(c2nnc(NS(=O)(=O)[C@@H](C)[C@H](OC)c3ncc(Cl)cn3)n2-c2c(OC)ncnc2OC)C1` [Example 118.0] was tested. Which EC50 did it give?
Answer: 1 nM

Question: How did the EC50 turn out when `COc1ncnc(OC)c1-n1c(NS(=O)(=O)[C@@H](C)[C@H](OC)c2ncc(C)cn2)nnc1C1CCC1` [Example 90.0, (1R,2S)-N-(5-cyclobutyl-4-(4,6-dimethoxypyrimidin-5-yl)-4H-1,2,4-triazol-3-yl)-1-methoxy-1-(5-methylpyrimidin-2-yl)propane-2-sulfonamide] was run?
Answer: 9.2 nM

Question: How did the EC50 turn out when `COc1cccc(OC)c1-n1c(NS(=O)(=O)[C@@H](C)[C@H](OC)c2ncc(Cl)cn2)nnc1[C@H]1C[C@H](Cl)C1` (single isomer, unassigned) [Example 153.0, (1R,2S)-1-(5-chloropyrimidin-2-yl)-N-(4-(2,6-dimethoxyphenyl)-5-((1r,3S)-3-chlorocyclobutyl)-4H-1,2,4-triazol-3-yl)-1-methoxypropane-2-sulfonamide or (1R,2S)-1-(5-chloropyrimidin-2-yl)-N-(4-(2,6-dimethoxyphenyl)-5-((1s,3R)-3-chlorocyclobutyl)-4H-1,2,4-triazol-3-yl)-1-methoxypropane-2-sulfonamide] was run?
Answer: 1.5 nM

Question: For `COc1ncnc(OC)c1-n1c(NS(=O)(=O)[C@@H](C)[C@H](OC)c2ncc(Cl)cn2)nnc1[C@H]1CC[C@@H](F)CC1` (single isomer, unassigned) [Example 175.0, (1R,2S)-1-(5-chloropyrimidin-2-yl)-N-(4-(4,6-dimethoxypyrimidin-5-yl)-5-((1s,4R)-4-fluorocyclohexyl)-4H-1,2,4-triazol-3-yl)-1-methoxypropane-2-sulfonamide or (1R,2S)-1-(5-chloropyrimidin-2-yl)-N-(4-(4,6-dimethoxypyrimidin-5-yl)-5-((1r,4S)-4-fluorocyclohexyl)-4H-1,2,4-triazol-3-yl)-1-methoxypropane-2-sulfonamide], which EC50 is on record?
Answer: 59 nM

Question: `COCC1(n2c(NS(=O)(=O)[C@@H](C)[C@H](OC)c3ncc(Cl)cn3)nnc2[C@H]2C[C@H](CO)C2)CC1` (single isomer, unassigned) [Example 132.0, (1R,2S)-1-(5-chloro-2-pyrimidinyl)-N-(5-(trans-3-(hydroxymethyl)cyclobutyl)-4-(1-(methoxymethyl)cyclopropyl)-4H-1,2,4-triazol-3-yl)-1-methoxy-2-propanesulfonamide or (1R,2S)-1-(5-chloro-2-pyrimidinyl)-N-(5-(cis-3-(hydroxymethyl)cyclobutyl)-4-(1-(methoxymethyl)cyclopropyl)-4H-1,2,4-triazol-3-yl)-1-methoxy-2-propanesulfonamide] was tested. Which EC50 did it give?
Answer: 1270 nM

Question: Which EC50 does the source give for `COc1ncnc(OC)c1-n1c(NS(=O)(=O)[C@@H](C)[C@H](C)c2ccc(Cl)cn2)nnc1C1CCC1` [Example 87.0, (2S,3R)-3-(5-chloro-2-pyridinyl)-N-(5-cyclobutyl-4-(4,6-dimethoxy-5-pyrimidinyl)-4H-1,2,4-triazol-3-yl)-2-butanesulfonamide] here?
Answer: 2 nM

Question: With `COc1cccc(OC)c1-n1c(NS(=O)(=O)[C@@H](C)[C@H](OC)c2ncc(Cl)cn2)nnc1[C@H]1C[C@H](OC)C1` (single isomer, unassigned) [Example 155.0, (1R,2S)-1-(5-chloropyrimidin-2-yl)-N-(4-(2,6-dimethoxyphenyl)-5-((1r,3S)-3-methoxycyclobutyl)-4H-1,2,4-triazol-3-yl)-1-methoxypropane-2-sulfonamide or (1R,2S)-1-(5-chloropyrimidin-2-yl)-N-(4-(2,6-dimethoxyphenyl)-5-((1s,3R)-3-methoxycyclobutyl)-4H-1,2,4-triazol-3-yl)-1-methoxypropane-2-sulfonamide] as the compound, how does the EC50 read?
Answer: 9.4 nM

Question: `COc1ncnc(OC)c1-n1c(NS(=O)(=O)[C@@H](C)[C@H](OC)c2ncc(Cl)cn2)nnc1[C@H]1C[C@]2(CC2(F)F)C1` (single isomer, unassigned) [Example 204.0, (1R,2S)-1-(5-chloropyrimidin-2-yl)-N-(5-((3R,5s)-1,1-difluorospiro[2.3]hexan-5-yl)-4-(4,6-dimethoxypyrimidin-5-yl)-4H-1,2,4-triazol-3-yl)-1-methoxypropane-2-sulfonamide or (1R,2S)-1-(5-chloropyrimidin-2-yl)-N-(5-((3S,5r)-1,1-difluorospiro[2.3]hexan-5-yl)-4-(4,6-dimethoxypyrimidin-5-yl)-4H-1,2,4-triazol-3-yl)-1-methoxypropane-2-sulfonamide] was tested. Which EC50 did it give?
Answer: 34 nM

Question: How did the EC50 turn out when “(1R,2S)-1-(5-chloropyrimidin-2-yl)-N-(4-(2,6-dimethoxyphenyl)-5-((R)-3-oxocyclopentyl)-4H-1,2,4-triazol-3-yl)-1-methoxypropane-2-sulfonamide or (1R,2S)-1-(5-chloropyrimidin-2-yl)-N-(4-(2,6-dimethoxyphenyl)-5-((S)-3-oxocyclopentyl)-4H-1,2,4-triazol-3-yl)-1-methoxypropane-2-sulfonamide [Example 224.0]” was run?
Answer: 38 nM

Question: Which EC50 does the source give for `COc1ncnc(OC)c1-n1c(NS(=O)(=O)[C@@H](C)[C@H](C)c2ncc(Cl)cn2)nnc1[C@@H]1CC[C@@H]1C(F)F` (stereo in doubt) [Example 166.0] here?
Answer: 20 nM

Question: Which EC50 does the source give for `COc1cccc(OC)c1-n1c(NS(=O)(=O)[C@@H](C)[C@H](OC)c2ncc(Cl)cn2)nnc1[C@H]1CCC1(F)F` (single isomer, unassigned) [Example 160.0, (1R,2S)-1-(5-chloropyrimidin-2-yl)-N-(5-((R)-2,2-difluorocyclobutyl)-4-(2,6-dimethoxyphenyl)-4H-1,2,4-triazol-3-yl)-1-methoxypropane-2-sulfonamide or (1R,2S)-1-(5-chloropyrimidin-2-yl)-N-(5-((S)-2,2-difluorocyclobutyl)-4-(2,6-dimethoxyphenyl)-4H-1,2,4-triazol-3-yl)-1-methoxypropane-2-sulfonamide] here?
Answer: 27 nM

Question: Which EC50 does the source give for `COc1cccc(OC)c1-n1c(NS(=O)(=O)[C@@H](C)[C@H](OC)c2ncc(Cl)cn2)nnc1[C@H]1C[C@H](F)C1` (single isomer, unassigned) [Example 152.0, (1R,2S)-1-(5-chloropyrimidin-2-yl)-N-(4-(2,6-dimethoxyphenyl)-5-((1r,3S)-3-fluorocyclobutyl)-4H-1,2,4-triazol-3-yl)-1-methoxypropane-2-sulfonamide or (1R,2S)-1-(5-chloropyrimidin-2-yl)-N-(4-(2,6-dimethoxyphenyl)-5-((1s,3R)-3-fluorocyclobutyl)-4H-1,2,4-triazol-3-yl)-1-methoxypropane-2-sulfonamide] here?
Answer: 4.2 nM

Question: With `COc1cccc(OC)c1-n1c(NS(=O)(=O)[C@@H](C)[C@H](C)c2ncc(C)cn2)nnc1C1CCCC1` [Example 17.0, (2S,3R)-N-(5-cyclopentyl-4-(2,6-dimethoxyphenyl)-4H-1,2,4-triazol-3-yl)-3-(5-methylpyrimidin-2-yl)butane-2-sulfonamide] as the compound, how does the EC50 read?
Answer: 1.1 nM

Question: With `COc1cccc(OC)c1-n1c(NS(=O)(=O)[C@@H](C)[C@@H](OC(C)C)c2cnc(C)cn2)nnc1C1CCC1` [Example 140.0] as the compound, how does the EC50 read?
Answer: 31 nM

Question: For `CO[C@H](c1ncc(Cl)cn1)[C@H](C)S(=O)(=O)Nc1nnc([C@H]2C[C@H](CO)C2)n1C(C)C` (single isomer, unassigned) [Example 136.0, (1R,2S)-1-(5-chloro-2-pyrimidinyl)-N-(5-trans-3-(hydroxymethyl)cyclobutyl)-4-(2-propanyl)-4H-1,2,4-triazol-3-yl)-1-methoxy-2-propanesulfonamide or (1R,2S)-1-(5-chloro-2-pyrimidinyl)-N-(5-(cis-3-(hydroxymethyl)cyclobutyl)-4-(2-propanyl)-4H-1,2,4-triazol-3-yl)-1-methoxy-2-propanesulfonamide], which EC50 is on record?
Answer: 3200 nM

Question: Which EC50 does the source give for `COc1ncnc(OC)c1-n1c(NS(=O)(=O)[C@@H](C)[C@H](OC)c2ncc(Cl)cn2)nnc1[C@H]1C[C@](C)(F)C1` (single isomer, unassigned) [Example 237.0, (1R,2S)-1-(5-chloropyrimidin-2-yl)-N-(4-(4,6-dimethoxypyrimidin-5-yl)-5-((1s,3S)-3-fluoro-3-methylcyclobutyl)-4H-1,2,4-triazol-3-yl)-1-methoxypropane-2-sulfonamide or (1R,2S)-1-(5-chloropyrimidin-2-yl)-N-(4-(4,6-dimethoxypyrimidin-5-yl)-5-((1r,3S)-3-fluoro-3-methylcyclobutyl)-4H-1,2,4-triazol-3-yl)-1-methoxypropane-2-sulfonamide] here?
Answer: 30 nM
